Values quoted from earlier work, collected in article PMC4810081, “Venetoclax (ABT-199) Might Act as a Perpetrator in Pharmacokinetic Drug–Drug Interactions” (Pharmaceutics, 2016).

Target: T1, BCRP (Homo sapiens, UniProt Q9UNQ0)
T1 construct: expressed in transfected cells; host or cells: MDCKII-BCRP (gift of A. H. Schinkel and P. Borst)
Parameters: method as in PMID 20222053
Details: control compound; read-out: IC50 BCRP inhibition, control compound; cited from earlier work

T1 sequence (Q9UNQ0 whole entry): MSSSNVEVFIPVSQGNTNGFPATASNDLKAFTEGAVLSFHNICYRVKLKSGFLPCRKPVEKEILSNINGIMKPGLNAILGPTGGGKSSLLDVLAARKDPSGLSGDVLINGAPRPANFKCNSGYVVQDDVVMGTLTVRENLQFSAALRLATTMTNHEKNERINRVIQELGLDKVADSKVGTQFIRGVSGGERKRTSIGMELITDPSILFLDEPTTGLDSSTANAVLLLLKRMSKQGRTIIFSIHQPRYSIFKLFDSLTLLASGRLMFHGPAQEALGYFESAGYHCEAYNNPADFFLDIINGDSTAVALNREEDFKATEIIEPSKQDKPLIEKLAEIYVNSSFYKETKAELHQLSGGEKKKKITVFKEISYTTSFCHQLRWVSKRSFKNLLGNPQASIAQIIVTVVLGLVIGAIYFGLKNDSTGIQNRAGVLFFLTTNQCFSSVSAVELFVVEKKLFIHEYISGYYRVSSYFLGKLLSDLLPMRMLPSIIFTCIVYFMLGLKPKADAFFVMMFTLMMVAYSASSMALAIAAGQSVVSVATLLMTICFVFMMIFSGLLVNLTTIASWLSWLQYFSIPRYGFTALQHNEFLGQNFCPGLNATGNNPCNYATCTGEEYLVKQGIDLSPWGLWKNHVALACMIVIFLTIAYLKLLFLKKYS

COc1ccc2c3c([nH]c2c1)[C@H](C=C(C)C)N1C(=O)[C@@H]2CCCN2C(=O)[C@@H]1C3 [FTC, fumitremorgin C]
IC50: 700 ± 300 nM
